Source: article PMC3265452 (PLoS Neglected Tropical Diseases, 2012)
Counter-ions that a name gives are not always drawn. Like-named read-outs stand apart in the source and are kept apart here.

Target: AaDOP2 (Aedes aegypti, UniProt H6D5H2)
Experiment: AaDOP2 antagonist screen of the LOPAC1280 library (HEK-CRELuc-Aadop2 cells, luminescence)
Assay type: cell-based
[1] = 10 µM compound, 300 nM dopamine, 2 hr, hit = compound effect <20

AaDOP2, sequence (H6D5H2 1-476): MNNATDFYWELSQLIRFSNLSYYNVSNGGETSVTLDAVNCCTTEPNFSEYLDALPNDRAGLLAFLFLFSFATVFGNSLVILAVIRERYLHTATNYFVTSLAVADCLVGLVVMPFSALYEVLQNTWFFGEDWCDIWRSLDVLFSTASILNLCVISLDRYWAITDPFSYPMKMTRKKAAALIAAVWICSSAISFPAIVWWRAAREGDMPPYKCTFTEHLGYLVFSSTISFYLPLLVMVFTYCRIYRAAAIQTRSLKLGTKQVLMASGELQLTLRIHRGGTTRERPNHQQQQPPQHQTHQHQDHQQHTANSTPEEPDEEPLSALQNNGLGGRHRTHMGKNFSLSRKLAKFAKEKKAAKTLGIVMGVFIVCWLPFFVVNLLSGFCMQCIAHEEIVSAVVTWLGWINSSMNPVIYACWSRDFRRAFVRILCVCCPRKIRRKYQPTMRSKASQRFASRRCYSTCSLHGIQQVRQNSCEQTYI

## NC(=NCc1ccccc1)NC(=O)c1nc(Cl)c(N)nc1N [Compound 166, Benzamil hydrochloride]
  Compound effect (percent receptor signaling in presence of test compound, relative lux units relative to the SCH23390 control): 60

## CCCCS(=N)(=O)CC[C@H](N)C(=O)O (stereo partly drawn) [Compound 167, L-Buthionine-sulfoximine]
  Compound effect (percent receptor signaling in presence of test compound, relative lux units relative to the SCH23390 control): 81

## C[N+](C)(C)CC(=O)O [Compound 170, Betaine hydrochloride]
  Compound effect (percent receptor signaling in presence of test compound, relative lux units relative to the SCH23390 control): 86

## C[N+](C)(C)CC=O [Compound 171, Betaine aldehyde chloride]
  Compound effect (percent receptor signaling in presence of test compound, relative lux units relative to the SCH23390 control): 99

## CC(/C=C/c1cccc(Oc2ccc(F)cc2)c1)N(O)C(N)=O (stereo not shown) [Compound 173, BWB70C]
  Compound effect (percent receptor signaling in presence of test compound, relative lux units relative to the SCH23390 control): 118

## O=c1[nH]c(=O)n([C@H]2C[C@H](O)[C@@H](CO)O2)cc1Br [Compound 174, 5-Bromo-2'-deoxyuridine]
  Compound effect (percent receptor signaling in presence of test compound, relative lux units relative to the SCH23390 control): 84

## CC(C)COCC(CN(Cc1ccccc1)c1ccccc1)N1CCCC1 (stereo not shown) [Compound 175, Bepridil hydrochloride]
  Compound effect (percent receptor signaling in presence of test compound, relative lux units relative to the SCH23390 control): 78

## CN(C)CC[C@@H](c1ccc(Br)cc1)c1ccccn1 [Compound 176, (+)-Brompheniramine maleate]
  Compound effect (percent receptor signaling in presence of test compound, relative lux units relative to the SCH23390 control): 97

## Oc1ccc(-c2nc(-c3ccncc3)c(-c3ccc(F)cc3)[nH]2)cc1 [Compound 178, SB 202190]
  Compound effect (percent receptor signaling in presence of test compound, relative lux units relative to the SCH23390 control): 65

## CC(C)(C)c1ccc(S(=O)(=O)/C=C/C#N)cc1 [Compound 179, Bay 11-7085]
  Compound effect (percent receptor signaling in presence of test compound, relative lux units relative to the SCH23390 control): 76

## CC(C)NCC(O)COc1ccc(CCOCC2CC2)cc1 (stereo not shown) [Compound 180, Betaxolol hydrochloride]
  Compound effect (percent receptor signaling in presence of test compound, relative lux units relative to the SCH23390 control): 95

## N=C(N)c1ccccc1 [Compound 181, Benzamidine hydrochloride]
  Compound effect (percent receptor signaling in presence of test compound, relative lux units relative to the SCH23390 control): 87

## C[C@H]1C[C@H]2[C@@H]3CCC4=CC(=O)C=C[C@]4(C)[C@@]3(F)[C@@H](O)C[C@]2(C)[C@@]1(O)C(=O)CO [Compound 182, Betamethasone]
  Compound effect (percent receptor signaling in presence of test compound, relative lux units relative to the SCH23390 control): 89

## O=C1CC2(CCCC2)CC(=O)N1CCCCN1CCN(c2ncccn2)CC1 [Compound 183, Buspirone hydrochloride]
  Compound effect (percent receptor signaling in presence of test compound, relative lux units relative to the SCH23390 control): 83

## NC(CO)C(=O)NNCc1ccc(O)c(O)c1O (stereo not shown) [Compound 184, Benserazide hydrochloride]
  Compound effect (percent receptor signaling in presence of test compound, relative lux units relative to the SCH23390 control): 94

## C[C@H]1CCC/C=C/[C@@H]2C[C@H](O)C[C@H]2[C@H](O)/C=C/C(=O)O1 [Compound 185, Brefeldin A from Penicillium brefeldianum]
  Compound effect (percent receptor signaling in presence of test compound, relative lux units relative to the SCH23390 control): 124

## CCCC1O[C@@H]2C[C@H]3[C@@H]4CCC5=CC(=O)C=C[C@]5(C)[C@H]4[C@@H](O)C[C@]3(C)[C@]2(C(=O)CO)O1 (stereo partly shown) [Compound 186, Budesonide]
  Compound effect (percent receptor signaling in presence of test compound, relative lux units relative to the SCH23390 control): 128

## CCCCOc1cc(CC2CNC(=O)N2)ccc1OC (stereo not shown) [Compound 189, Ro 20-1724]
  Compound effect (percent receptor signaling in presence of test compound, relative lux units relative to the SCH23390 control): 122

## CC(C)C[C@H](NC(=O)[C@@H](O)[C@H](N)Cc1ccccc1)C(=O)O [Compound 190, Bestatin hydrochloride]
  Compound effect (percent receptor signaling in presence of test compound, relative lux units relative to the SCH23390 control): 145

## CC[N+](C)(C)Cc1ccccc1Br [Compound 191, Bretylium tosylate]
  Compound effect (percent receptor signaling in presence of test compound, relative lux units relative to the SCH23390 control): 97

## CN1CCc2cc3c(cc2[C@H]1[C@@H]1OC(=O)c2c1ccc1c2OCO1)OCO3 [Compound 192, (+)-Bicuculline]
  Compound effect (percent receptor signaling in presence of test compound, relative lux units relative to the SCH23390 control): 94

## COc1ccccc1N1CCN(CCCCNC(=O)c2ccc3ccccc3c2)CC1 [Compound 193, BP 897]
  Compound effect (percent receptor signaling in presence of test compound, relative lux units relative to the SCH23390 control): 54

## O=c1[nH]c(=O)n([C@H]2C[C@H](O)[C@@H](CO)O2)cc1/C=C/Br [Compound 194, (E)-5-(2-Bromovinyl)-2'-deoxyuridine]
  Compound effect (percent receptor signaling in presence of test compound, relative lux units relative to the SCH23390 control): 121

## OC(CN1CCN(c2cccc(Cl)c2)CC1)C(c1ccccc1)c1ccccc1 (stereo not shown) [Compound 195, BRL 15572]
  Compound effect (percent receptor signaling in presence of test compound, relative lux units relative to the SCH23390 control): 84

## Cl.NCC(O)c1cc(O)c(O)cc1F (stereo not shown) [Compound 197, 6-Fluoronorepinephrine hydrochloride]
[1]
  Compound effect (percent receptor signaling in presence of test compound, relative lux units relative to the SCH23390 control): 90%

## C=CCc1ccccc1OCC(O)CNC1(C)CCC(C(C)(C)NC(=O)CBr)CC1 (stereo not shown) [Compound 198, Bromoacetyl alprenolol menthane]
  Compound effect (percent receptor signaling in presence of test compound, relative lux units relative to the SCH23390 control): 87

## COc1cccc(OC)c1OCCNCC1CSc2ccccc2O1 (stereo not shown) [Compound 199, Benoxathian hydrochloride]
  Compound effect (percent receptor signaling in presence of test compound, relative lux units relative to the SCH23390 control): 68

## CC(COc1ccccc1)N(CCCl)Cc1ccccc1 (stereo not shown) [Compound 200, Phenoxybenzamine hydrochloride]
  Compound effect (percent receptor signaling in presence of test compound, relative lux units relative to the SCH23390 control): 86

## CC(NC(C)(C)C)C(=O)c1cccc(Cl)c1 (stereo not shown) [Compound 201, Bupropion hydrochloride]
  Compound effect (percent receptor signaling in presence of test compound, relative lux units relative to the SCH23390 control): 77

## C[N+](C)(C)CCOC(=O)CBr.[Br-] [Compound 204, Bromoacetylcholine bromide]
  Compound effect (percent receptor signaling in presence of test compound, relative lux units relative to the SCH23390 control): 91

## COc1ccccc1N1CCN(CCN2C(=O)CC3(CCCC3)CC2=O)CC1.Cl.Cl [Compound 205, BMY 7378 dihydrochloride]
[1]
  Compound effect (percent receptor signaling in presence of test compound, relative lux units relative to the SCH23390 control): 102%

## Br.C=CCN1CCc2c(cc(O)c(O)c2Br)[C@@H](c2ccccc2)C1 [Compound 206, R(+)-6-Bromo-APB hydrobromide]
[1]
  Compound effect (percent receptor signaling in presence of test compound, relative lux units relative to the SCH23390 control): 182%

## Cl.c1ccc2sc(C3(N4CCCCC4)CCCCC3)cc2c1 [Compound 207, BTCP hydrochloride]
  Compound effect (percent receptor signaling in presence of test compound, relative lux units relative to the SCH23390 control): 100

## CCNC(=O)[C@H]1O[C@@H](n2cnc3c(NCc4ccccc4)ncnc32)[C@H](O)[C@@H]1O [Compound 208, N6-Benzyl-5'-N-ethylcarboxamidoadenosine]
[1]
  Compound effect (percent receptor signaling in presence of test compound, relative lux units relative to the SCH23390 control): 108%

## Cl.c1ccc2nc(C3=NCCN3)ccc2c1 [Compound 209, BU224 hydrochloride]
[1]
  Compound effect (percent receptor signaling in presence of test compound, relative lux units relative to the SCH23390 control): 92%

## CCN1CCc2nc(N)oc2CC1.Cl.Cl [Compound 210, B-HT 933 dihydrochloride]
[1]
  Compound effect (percent receptor signaling in presence of test compound, relative lux units relative to the SCH23390 control): 79%

## C[C@H](Cc1ccc(OCC(=O)[O-])cc1)NC[C@H](O)c1cccc(Cl)c1.[Na+] [Compound 212, BRL 37344 sodium]
[1]
  Compound effect (percent receptor signaling in presence of test compound, relative lux units relative to the SCH23390 control): 87%
